Experimental data published in ChEMBL document CHEMBL3856225, “Design, synthesis and biological evaluation of 5-benzylidene-2-iminothiazolidin-4-ones as selective GSK-3β inhibitors” (Eur J Med Chem, 2016).

target: T1, Glycogen synthase kinase-3 beta (Homo sapiens, UniProt P49841); test: Inhibition of His-tagged full length human recombinant GSK-3beta expressed in Baculovirus at 0.5 uM using Ser/Thr9 peptide as substrate by Z' LYTE assay relative to control
Target sequence in this assay (P49841 whole entry, looked up): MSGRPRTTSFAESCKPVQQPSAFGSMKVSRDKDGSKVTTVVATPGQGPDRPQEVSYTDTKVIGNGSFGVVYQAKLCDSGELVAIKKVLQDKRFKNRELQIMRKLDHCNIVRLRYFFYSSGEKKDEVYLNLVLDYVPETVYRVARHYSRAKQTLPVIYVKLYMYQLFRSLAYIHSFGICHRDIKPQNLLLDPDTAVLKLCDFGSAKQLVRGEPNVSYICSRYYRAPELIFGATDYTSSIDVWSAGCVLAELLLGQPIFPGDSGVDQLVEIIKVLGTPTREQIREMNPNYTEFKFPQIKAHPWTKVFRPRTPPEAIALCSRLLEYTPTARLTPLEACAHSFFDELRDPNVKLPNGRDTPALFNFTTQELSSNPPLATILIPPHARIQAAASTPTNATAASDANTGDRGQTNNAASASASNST

Row | inhibition | SMILES
1 | > 50% | COc1cc(/C=C2\SC(=N)NC2=O)ccc1O
2 | > 50% | O=C1N/C(=N/c2ccccc2)S/C1=C\c1ccc(F)cc1
3 | > 50% | COc1ccc(/C=C2\S/C(=N\Cc3ccccc3)NC2=O)cc1OC

The next lines start with the compound.

Row | SMILES | inhibition
4 | COc1ccc(/C=C2\SC(=N)NC2=O)cc1OC | > 50%
5 | O=C1N=C(NCc2ccccc2)S/C1=C\c1ccc(O)cc1 | > 50%
6 | N=C1NC(=O)/C(=C/c2ccc(O)c(C(=O)O)c2)S1 | > 50%
7 | O=C1N/C(=N/c2ccccc2)S/C1=C\c1ccc(O)cc1 | > 50%
8 | COc1ccc(/C=C2\S/C(=N\Cc3ccccc3)NC2=O)cc1[N+](=O)[O-] | > 50%
9 | CCOc1cc(/C=C2\S/C(=N\Cc3ccccc3)NC2=O)ccc1O | > 50%
10 | O=C1N/C(=N/Cc2ccccc2)S/C1=C\c1ccc(Cl)c([N+](=O)[O-])c1 | > 50%

target: T1, Glycogen synthase kinase-3 beta; test: Inhibition of His-tagged full length human recombinant GSK-3beta expressed in Baculovirus using Ser/Thr9 peptide as substrate by Z' LYTE assay
Target sequence in this assay (P49841 whole entry): as the sequence (P49841 whole entry, looked up) above

Row | IC50 | SMILES
11 | 40 nM | O=C1N/C(=N/c2ccccc2)S/C1=C\c1ccc(F)cc1
12 | 44.3 nM | COc1ccc(/C=C2\S/C(=N\Cc3ccccc3)NC2=O)cc1OC

Further lines, the compound ahead of its results:

Row | SMILES | IC50
13 | COc1ccc(/C=C2\SC(=N)NC2=O)cc1OC | 80.5 nM
14 | O=C1N=C(NCc2ccccc2)S/C1=C\c1ccc(O)cc1 | 27.1 nM
15 | N=C1NC(=O)/C(=C/c2ccc(O)c(C(=O)O)c2)S1 | 84.8 nM
16 | O=C1N/C(=N/c2ccccc2)S/C1=C\c1ccc(O)cc1 | 27.7 nM
17 | COc1ccc(/C=C2\S/C(=N\Cc3ccccc3)NC2=O)cc1[N+](=O)[O-] | 2.1 nM
18 | CCOc1cc(/C=C2\S/C(=N\Cc3ccccc3)NC2=O)ccc1O | 51.7 nM
19 | O=C1N/C(=N/Cc2ccccc2)S/C1=C\c1ccc(Cl)c([N+](=O)[O-])c1 | 24 nM

target: Cyclin-dependent kinase 2 (Homo sapiens) (UniProt P24941); test: Inhibition of GST-tagged human recombinant CDK2 assessed as residual activity at 2 uM using Ser/Thr12 peptide as substrate by Z' LYTE assay relative to control

Row | Activity | SMILES
20 | 68.9% | O=C1N/C(=N/c2ccccc2)S/C1=C\c1ccc(F)cc1
21 | 53.8% | COc1ccc(/C=C2\S/C(=N\Cc3ccccc3)NC2=O)cc1OC

Further lines, the compound ahead of its results:

Row | SMILES | Activity
22 | O=C1N=C(NCc2ccccc2)S/C1=C\c1ccc(O)cc1 | 63.2%
23 | O=C1N/C(=N/c2ccccc2)S/C1=C\c1ccc(O)cc1 | 69.6%
24 | COc1ccc(/C=C2\S/C(=N\Cc3ccccc3)NC2=O)cc1[N+](=O)[O-] | 73%
25 | CCOc1cc(/C=C2\S/C(=N\Cc3ccccc3)NC2=O)ccc1O | 39.1%
26 | O=C1N/C(=N/Cc2ccccc2)S/C1=C\c1ccc(Cl)c([N+](=O)[O-])c1 | 68.4%
